The term Km denotes the concentration of substrate that gives half-maximal velocity. The pKi is the Ki on a negative log10 scale, so that one unit is a factor of ten.

pKi: −log10 of the molar value.

Assay [1] has as its system pyruvate dehydrogenase. The note with it: highly purified pyruvate dehydrogenase, cited from earlier work.
In assay [2] the test system is A549 cells. In words: Extracellular lactate after PDK inhibitor, with or without UK5099 pre-treatment. The assay is classed as cell-based. As to conditions: 16 hrs UK5099 pre-treatment, then DCA 50 mM or KULA2 500 μM for 6 hrs. How it is done:
A549 cells were pre-treated for 16 hrs with the MPC inhibitor UK5099 and then subsequently treated with the test articles for 6 hrs; extracellular lactate was then measured. Dichloroacetate (DCA) and KULA2, a dichloroacetate (DCA) analogue targeted to the mitochondria with a lipophilic triphenylphosphonium (TPP) cation moiety, were used ((Pathak R K et al., ACS Chem. Biol., 9 (5) 1178-1187 (2014), (Pathak R K et al., ACS Chem. Biol., 9 (5) 1178-1187 (2014), and WO/2015/002996). DCA is dosed at 50 mM and KULA2 is dosed at 500 μM.

The test system of assay [3] is HCT116 tumors. In words: KULA2 in mice harboring HCT116 tumors (MPC null). The assay is classed as in vivo. As to conditions: comparator results named beside KULA2 in HCT116; dose and source not given. The protocol:
CT26 is the MPC+ group. MPC levels were verified via western blotting or otherwise known (see, e.g., Schell, et al., Molecular Cell, 56:400-413 (2014)).
In both models HCT116 and CT26 the mice (between 8-10 per arm) were dosed with KULA2 via i.p. injection and vehicle, HCT116 tumors at a dose of 20 mg/kg, and CT26 tumors at a dose of 18 mg/kg. Dosing schedule in both cases was 5 days on, 2 days off for the duration of the study.
Experiments were designed to determine if MPC expression correlates with the efficacy of PDK inhibitor. A PDK inhibitor, KULA2, was administered to mice harboring HCT116 tumors (at a dose of 20 mg/kg) or CT26 tumors (at a dose of 18 mg/kg).

For `Cc1ncc(C[n+]2csc(CCO[P@](=O)(O)OP(=O)(O)O)c2C)c(N)n1` [TPP, thiamine pyrophosphate], the Km in assay [1] (read-out: Km of cofactor) was 0.11 µM.
Regarding `N#C/C(=C\c1cn(-c2ccccc2)c2ccccc12)C(=O)O` [UK5099], the “effect of MPC inhibition on lactate reduction by PDK inhibitors” value in assay [2] is “lowers the lactate reduction normally seen with PDK inhibitors”.
As to `N.N.[Cl][Pt][Cl]` [cisplatin], the “tumor inhibition (comparators)” value in assay [3] worked out at 22%.
Consider `Cc1ncc(C[n+]2csc(CCO)c2C)c(=O)[nH]1` [oxythiamine, Oxythiamine], for which the pKi in assay [1] (oxythiamine diphosphate ester, read-out: KI against the normal cofactor TPP) was 7.15.
As to `CNC(=O)c1cc(Oc2ccc(NC(=O)Nc3ccc(Cl)c(C(F)(F)F)c3)cc2)ccn1` [sorafenib], the “tumor inhibition (comparators)” value in assay [3] is given as 17%.
With “VEGF-TRAP: comparator named for tumor inhibition”, the “tumor inhibition (comparators)” value in assay [3] turned out to be 22%.

The values above are taken from patent publication US20170349949A1, “METHODS OF SELECTING SUBJECTS FOR TREATMENT WITH METABOLIC MODULATORS” (Partikula LLC, priority 2016, published 2017).
